Our source for the DC50 values is US20220281876A1, “DEGRADATION OF BRUTON'S TYROSINE KINASE (BTK) BY CONJUGATION OF BTK INHIBITORS WITH E3 LIGASE LIGAND AND METHODS OF USE” (BEIGENE, LTD., priority 2019, published 2022).

For this experiment, the target named is T1, BTK (Homo sapiens, UniProt Q06187).
T1 construct: endogenous in cells; host or cells: Ramos cells
T1 sequence (Q06187 whole entry): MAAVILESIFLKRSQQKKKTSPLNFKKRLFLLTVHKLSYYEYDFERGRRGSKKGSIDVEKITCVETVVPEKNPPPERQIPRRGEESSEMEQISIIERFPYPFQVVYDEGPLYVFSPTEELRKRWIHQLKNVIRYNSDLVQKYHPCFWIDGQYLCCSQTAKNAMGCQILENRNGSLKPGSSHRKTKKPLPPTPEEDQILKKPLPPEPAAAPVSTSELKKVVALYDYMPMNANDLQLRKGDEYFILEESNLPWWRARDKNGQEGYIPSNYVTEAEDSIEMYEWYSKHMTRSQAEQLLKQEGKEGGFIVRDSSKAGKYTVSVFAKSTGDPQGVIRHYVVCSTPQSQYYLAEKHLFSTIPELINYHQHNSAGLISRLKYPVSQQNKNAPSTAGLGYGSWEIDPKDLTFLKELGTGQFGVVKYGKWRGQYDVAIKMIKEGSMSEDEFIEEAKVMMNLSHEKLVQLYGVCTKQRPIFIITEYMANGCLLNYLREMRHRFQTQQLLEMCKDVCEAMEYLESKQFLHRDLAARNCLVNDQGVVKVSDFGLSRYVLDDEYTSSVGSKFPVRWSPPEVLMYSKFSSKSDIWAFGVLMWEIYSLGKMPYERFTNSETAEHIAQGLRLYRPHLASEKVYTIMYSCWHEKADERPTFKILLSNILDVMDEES
The experiment is described as follows: BTK cell degradation in Ramos cells (total BTK ELISA). To be noted: 16 h incubation, FastScan total BTK ELISA. Format: cell-based. Here is the method: Ramos cells are treated with compounds diluted in 0.1% DMSO, dilution is done according to the following protocol: (1) make 1000x stock solution in DMSO from 10 mM by 5-fold dilution, total 7 doses were included; (2) make 10x solution in cell culture medium by transferring 1 ul 1000x stock solution into 99 ul medium; (3) 11 ul of 10× solution is added to cells and incubate for 16 h.
Cells in 96 well plate are harvested by centrifugation (1200 rpm), and wash once with ice-cold PBS. Then, 100 ul 1×cell extraction buffer is added in each well. The cells are placed on a shaker for 20 min at 4° C.; 5 ul lysate is transferred to 45 ul of 1×cell extraction buffer in ELISA plate, and 50 ul of the antibody cocktail is added in each well; seal the plate and incubate 1 hour at room temperature on a plate shaker; medium is discarded from the plate, tap the plated on a paper towel, wash 3×200 ul ELISA wash buffer; add 100 ul of TMB to each well and incubate the plate in the dark for 15 min at room temperature on a shaker; add 100 ul of STOP solution to each well; read absorbance at 450 nm. The BTK ELISA assay was performed using FastScan total BTK ELISA kit (Cell Signaling Cat #36609).
(In an ELISA, binding on a coated surface is turned into a signal by an enzyme label.)
Consider `NC(=O)c1c(-c2ccc(Oc3ccccc3)cc2)nn2c1NCC[C@H]2C1CCN(C(=O)c2cn(CCOCCOCCOCCOCCOCCOCCNc3cccc4c3C(=O)N(C3CCC(=O)NC3=O)C4=O)nn2)CC1` (stereo partly drawn) [Example 16, (7S)-7-(1-(1-(20-((2-(2,6-dioxopiperidin-3-yl)-1,3-dioxoisoindolin-4-yl)amino)-3,6,9, 12, 15, 18-hexaoxaicosyl)-1H-1,2,3-triazole-4-carbonyl)piperidin-4-yl)-2-(4-phenoxyphenyl)-4,5,6,7-tetrahydropyrazolo[1,5-a]pyrimidine-3-carboxamide], for which the half-maximal degradation concentration (DC50) (in general, the midpoint of the concentration-degradation curve) came to 107 nM.
Then `NC(=O)c1c(-c2ccc(Oc3ccccc3)cc2)nn2c1NCC[C@H]2C1CCN(C(=O)c2cn(CCOCCOCCOCCOCCOCCNc3ccc4c(c3)C(=O)N(C3CCC(=O)NC3=O)C4=O)nn2)CC1` (stereo partly drawn) [Example 14, (7S)-7-(1-(1-(17-((2-(2,6-dioxopiperidin-3-yl)-1,3-dioxoisoindolin-5-yl)amino)-3,6,9, 12, 15-pentaoxaheptadecyl)-1H-1,2,3-triazole-4-carbonyl)piperidin-4-yl)-2-(4-phenoxyphenyl)-4,5,6,7-tetrahydropyrazolo[1,5-a]pyrimidine-3-carboxamide], with 78 nM; and `NC(=O)c1c(-c2ccc(Oc3ccccc3)cc2)nn2c1NCC[C@H]2C1CCN(C(=O)CCCc2cn(CCOCCOCCNc3cccc4c3C(=O)N(C3CCC(=O)NC3=O)C4=O)nn2)CC1` (stereo partly drawn) [Example 20, (7S)-7-(1-(4-(1-(2-(2-(2-((2-(2,6-dioxopiperidin-3-yl)-1,3-dioxoisoindolin-4-yl)amino)ethoxy)ethoxy)ethyl)-1H-1,2,3-triazol-4-yl)butanoyl)piperidin-4-yl)-2-(4-phenoxyphenyl)-4,5,6,7-tetrahydropyrazolo[1,5-a]pyrimidine-3-carboxamide], with > 10000 nM; and `NC(=O)c1c(-c2ccc(Oc3ccccc3)cc2)nn2c1NCC[C@H]2C1CCN(C(=O)CCCNC(=O)COCCOCCOCCOCCNc2cccc3c2C(=O)N(C2CCC(=O)NC2=O)C3=O)CC1` (stereo partly drawn) [Example 34, (7S)-7-(1-(1-((2-(2,6-dioxopiperidin-3-yl)-1,3-dioxoisoindolin-4-yl)amino)-14-oxo-3,6,9, 12-tetraoxa-15-azanonadecan-19-oyl)piperidin-4-yl)-2-(4-phenoxyphenyl)-4,5,6,7-tetrahydropyrazolo[1,5-a]pyrimidine-3-carboxamide], with 1890 nM.
With `NC(=O)c1c(-c2ccc(Oc3ccccc3)cc2)nn2c1NCC[C@H]2C1CCN(C(=O)COCCCCCCCCNc2cccc3c2C(=O)N(C2CCC(=O)NC2=O)C3=O)CC1` (stereo partly drawn) [Example 26, (7S)-7-(1-(2-((8-((2-(2,6-dioxopiperidin-3-yl)-1,3-dioxoisoindolin-4-yl)amino)octyl)oxy)acetyl)piperidin-4-yl)-2-(4-phenoxyphenyl)-4,5,6,7-tetrahydropyrazolo[1,5-a]pyrimidine-3-carboxamide] the figure was > 10000 nM; with `NC(=O)c1c(-c2ccc(Oc3ccccc3)cc2)nn2c1NCC[C@H]2C1CCN(C(=O)CCc2ccc(N3CCN(c4ccc5c(c4)C(=O)N(C4CCC(=O)NC4=O)C5=O)CC3)cc2)CC1` (stereo partly drawn) [Example 40, (7S)-7-(1-(3-(4-(4-(2-(2,6-dioxopiperidin-3-yl)-1,3-dioxoisoindolin-5-yl)piperazin-1-yl)phenyl)propanoyl)piperidin-4-yl)-2-(4-phenoxyphenyl)-4,5,6,7-tetrahydropyrazolo[1,5-a]pyrimidine-3-carboxamide], 74 nM.
In the case of `NC(=O)c1c(-c2ccc(Oc3ccccc3)cc2)nn2c1NCCC2C1CCN(C(=O)CC2CCC(N3CCN(c4ccc5c(c4)C(=O)N(C4CCC(=O)NC4=O)C5=O)CC3)CC2)CC1` (stereo in doubt) [Example 147, (7R)-7-(1-(2-(4-(4-(2-(2,6-dioxopiperidin-3-yl)-1,3-dioxoisoindolin-5-yl)piperazin-1-yl)cyclohexyl)acetyl)piperidin-4-yl)-2-(4-phenoxyphenyl)-4,5,6,7-tetrahydropyrazolo[1,5-a]pyrimidine-3-carboxamide], the DC50 stood at 244 nM.
For the compound `CN(CCNc1cccc2c1C(=O)N(C1CCC(=O)NC1=O)C2=O)CCC(=O)N1CCC([C@@H]2CCNc3c(C(N)=O)c(-c4ccc(Oc5ccccc5)cc4)nn32)CC1` (stereo partly drawn) [Example 38, (7S)-7-(1-(3-((2-((2-(2,6-dioxopiperidin-3-yl)-1,3-dioxoisoindolin-4-yl)amino)ethyl)(methyl)amino)propanoyl)piperidin-4-yl)-2-(4-phenoxyphenyl)-4,5,6,7-tetrahydropyrazolo[1,5-a]pyrimidine-3-carboxamide], half-maximal degradation (DC50) was put at 371 nM. Compared with the last compound, the DC50 is about 1.5-fold higher.
Regarding `NC(=O)c1c(-c2ccc(Oc3ccccc3)cc2)nn2c1NCC[C@H]2C1CCN(C(=O)COCCOCCOCCOCCNc2cccc3c2C(=O)N(C2CCC(=O)NC2=O)C3=O)CC1` (stereo partly drawn) [Example 27, (7S)-7-(1-(14-((2-(2,6-dioxopiperidin-3-yl)-1,3-dioxoisoindolin-4-yl)amino)-3,6,9, 12-tetraoxatetradecanoyl)piperidin-4-yl)-2-(4-phenoxyphenyl)-4,5,6,7-tetrahydropyrazolo[1,5-a]pyrimidine-3-carboxamide], the DC50 is > 10000 nM.
Then `NC(=O)c1c(-c2ccc(Oc3ccccc3)cc2)nn2c1NCC[C@H]2C1CCN(C(=O)CCCNc2cccc3c2C(=O)N(C2CCC(=O)NC2=O)C3=O)CC1` (stereo partly drawn) [Example 32, (7S)-7-(1-(4-((2-(2,6-dioxopiperidin-3-yl)-1,3-dioxoisoindolin-4-yl)amino)butanoyl)piperidin-4-yl)-2-(4-phenoxyphenyl)-4,5,6,7-tetrahydropyrazolo[1,5-a]pyrimidine-3-carboxamide], with > 10000 nM; and `NC(=O)c1c(-c2ccc(Oc3ccccc3)cc2)nn2c1NCC[C@H]2C1CCN(C(=O)c2cn(CCOCCOCCOCCOCCCc3cccc4c3CN(C3CCC(=O)NC3=O)C4=O)nn2)CC1` (stereo partly drawn) [Example 10, (7S)-7-(1-(1-(15-(2-(2,6-dioxopiperidin-3-yl)-1-oxoisoindolin-4-yl)-3,6,9, 12-tetraoxapentadecyl)-1H-1,2,3-triazole-4-carbonyl)piperidin-4-yl)-2-(4-phenoxyphenyl)-4,5,6,7-tetrahydropyrazolo[1,5-a]pyrimidine-3-carboxamide], with > 10000 nM; and `NC(=O)c1c(-c2ccc(Oc3ccccc3)cc2)nn2c1NCC[C@H]2C1CCN(C(=O)c2cn(CCOCCOCCOCCCc3cccc4c3CN(C3CCC(=O)NC3=O)C4=O)nn2)CC1` (stereo partly drawn) [Example 6, (7S)-7-(1-(1-(2-(2-(2-(3-(2-(2,6-dioxopiperidin-3-yl)-1-oxoisoindolin-4-yl)propoxy)ethoxy)ethoxy)ethyl)-1H-1,2,3-triazole-4-carbonyl)piperidin-4-yl)-2-(4-phenoxyphenyl)-4,5,6,7-tetrahydropyrazolo[1,5-a]pyrimidine-3-carboxamide], with 242 nM.
For the compound `CN(CCOCCNc1cccc2c1C(=O)N(C1CCC(=O)NC1=O)C2=O)CCC(=O)N1CCC([C@@H]2CCNc3c(C(N)=O)c(-c4ccc(Oc5ccccc5)cc4)nn32)CC1` (stereo partly drawn) [Example 37, (7S)-7-(1-(3-((2-(2-((2-(2,6-dioxopiperidin-3-yl)-1,3-dioxoisoindolin-4-yl)amino)ethoxy)ethyl)(methyl)amino)propanoyl)piperidin-4-yl)-2-(4-phenoxyphenyl)-4,5,6,7-tetrahydropyrazolo[1,5-a]pyrimidine-3-carboxamide], the DC50 worked out at 120 nM. Against the preceding compound, the DC50 is about 2-fold lower.
With `NC(=O)c1c(-c2ccc(Oc3ccccc3)cc2)nn2c1NCC[C@H]2C1CCN(C(=O)COCCOCCNC(=O)CCN2CCN(c3ccc4c(c3)C(=O)N(C3CCC(=O)NC3=O)C4=O)CC2)CC1` (stereo partly drawn) [Example 28, (7S)-7-(1-(2-(2-(2-(3-(4-(2-(2,6-dioxopiperidin-3-yl)-1,3-dioxoisoindolin-5-yl)piperazin-1-yl)propanamido)ethoxy)ethoxy)acetyl)piperidin-4-yl)-2-(4-phenoxyphenyl)-4,5,6,7-tetrahydropyrazolo[1,5-a]pyrimidine-3-carboxamide] the figure was 1480 nM.
Consider `NC(=O)c1c(-c2ccc(Oc3ccccc3)cc2)nn2c1NCC[C@H]2C1CCN(C(=O)CCc2ccc(NC(=O)CNc3ccc4c(c3)C(=O)N(C3CCC(=O)NC3=O)C4=O)cc2)CC1` (stereo partly drawn) [Example 57, (7S)-7-(1-(3-(4-(2-((2-(2,6-dioxopiperidin-3-yl)-1,3-dioxoisoindolin-5-yl)amino)acetamido)phenyl)propanoyl)piperidin-4-yl)-2-(4-phenoxyphenyl)-4,5,6,7-tetrahydropyrazolo[1,5-a] pyrimidine-3-carboxamide], for which the DC50 was > 10000 nM.
Then `NC(=O)c1c(-c2ccc(Oc3ccccc3)cc2)nn2c1NCC[C@H]2C1CCN(C(=O)c2cn(CCOCCOCCCc3cccc4c3CN(C3CCC(=O)NC3=O)C4=O)nn2)CC1` (stereo partly drawn) [Example 5, (7S)-7-(1-(1-(2-(2-(3-(2-(2,6-dioxopiperidin-3-yl)-1-oxoisoindolin-4-yl)propoxy)ethoxy)ethyl)-1H-1,2,3-triazole-4-carbonyl)piperidin-4-yl)-2-(4-phenoxyphenyl)-4,5,6,7-tetrahydropyrazolo[1,5-a]pyrimidine-3-carboxamide], with > 10000 nM; and `CN(C/C=C/C(=O)N1CCC([C@@H]2CCNc3c(C(N)=O)c(-c4ccc(Oc5ccccc5)cc4)nn32)CC1)CCCCCNc1cccc2c1CN(C1CCC(=O)NC1=O)C2=O` (stereo partly drawn) [Example 46, (7S)-7-(1-((E)-4-((5-((2-(2,6-dioxopiperidin-3-yl)-1-oxoisoindolin-4-yl)amino)pentyl)(methyl)amino)but-2-enoyl)piperidin-4-yl)-2-(4-phenoxyphenyl)-4,5,6,7-tetrahydropyrazolo[1,5-a]pyrimidine-3-carboxamide], with 198 nM.
